Source: US20220363689A1, “INHIBITOR OF BTK AND MUTANTS THEREOF” (Newave Pharmaceutical Inc., priority 2019, published 2022)
Read-outs that look alike come from different tables or passages of the source.

Tests used:
EGFR = EGFR (Homo sapiens, UniProt P00533); assay: Caliper-based kinase assay, off-target EGFR; format: biochemical; details: Cys-481 homologous kinase panel
Description: (§1) A Caliper-based kinase assay (Caliper Life Sciences, Hopkinton, Mass.) was used to measure inhibition of kinase activity of compounds of the present disclosure. […]

HER4 = HER4 (Homo sapiens, UniProt Q15303); assay: Caliper-based kinase assay, off-target HER4; format: biochemical; details: Cys-481 homologous kinase panel
HER4, sequence (Q15303 26-1308): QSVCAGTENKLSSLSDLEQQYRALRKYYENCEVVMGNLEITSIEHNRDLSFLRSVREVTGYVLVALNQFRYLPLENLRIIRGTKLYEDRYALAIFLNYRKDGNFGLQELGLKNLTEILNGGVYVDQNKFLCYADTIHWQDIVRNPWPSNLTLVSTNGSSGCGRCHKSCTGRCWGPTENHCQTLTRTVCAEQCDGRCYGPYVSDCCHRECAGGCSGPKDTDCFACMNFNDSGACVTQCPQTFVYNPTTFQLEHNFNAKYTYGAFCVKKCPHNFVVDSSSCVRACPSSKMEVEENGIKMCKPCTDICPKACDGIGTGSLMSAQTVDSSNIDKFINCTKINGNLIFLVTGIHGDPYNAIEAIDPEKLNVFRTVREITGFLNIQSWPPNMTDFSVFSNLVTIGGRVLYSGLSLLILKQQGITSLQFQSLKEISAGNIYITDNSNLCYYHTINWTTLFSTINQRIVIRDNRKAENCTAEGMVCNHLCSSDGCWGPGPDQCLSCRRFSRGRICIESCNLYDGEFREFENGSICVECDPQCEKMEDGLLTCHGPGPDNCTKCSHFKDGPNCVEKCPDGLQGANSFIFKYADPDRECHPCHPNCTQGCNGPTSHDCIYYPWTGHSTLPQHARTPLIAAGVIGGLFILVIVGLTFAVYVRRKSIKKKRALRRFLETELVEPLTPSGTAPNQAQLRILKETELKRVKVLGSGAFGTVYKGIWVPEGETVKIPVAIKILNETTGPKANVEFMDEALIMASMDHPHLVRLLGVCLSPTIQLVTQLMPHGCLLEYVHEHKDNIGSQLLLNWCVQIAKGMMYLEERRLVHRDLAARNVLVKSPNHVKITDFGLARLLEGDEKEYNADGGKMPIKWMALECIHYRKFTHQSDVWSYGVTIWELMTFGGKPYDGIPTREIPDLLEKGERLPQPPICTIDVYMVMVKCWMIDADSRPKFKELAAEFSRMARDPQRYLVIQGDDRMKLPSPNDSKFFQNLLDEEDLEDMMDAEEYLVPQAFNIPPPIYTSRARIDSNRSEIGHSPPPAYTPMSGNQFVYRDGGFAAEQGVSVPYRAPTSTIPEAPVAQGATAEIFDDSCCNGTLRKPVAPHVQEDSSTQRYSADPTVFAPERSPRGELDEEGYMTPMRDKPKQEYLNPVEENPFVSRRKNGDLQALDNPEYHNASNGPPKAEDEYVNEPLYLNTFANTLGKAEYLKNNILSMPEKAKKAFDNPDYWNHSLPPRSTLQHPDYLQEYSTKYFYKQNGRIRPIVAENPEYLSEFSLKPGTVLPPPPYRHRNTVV
Description: as §1

BLK = BLK (Homo sapiens, UniProt P51451); assay: Caliper-based kinase assay, off-target BLK; format: biochemical; details: Cys-481 homologous kinase panel
BLK, sequence (P51451 whole entry): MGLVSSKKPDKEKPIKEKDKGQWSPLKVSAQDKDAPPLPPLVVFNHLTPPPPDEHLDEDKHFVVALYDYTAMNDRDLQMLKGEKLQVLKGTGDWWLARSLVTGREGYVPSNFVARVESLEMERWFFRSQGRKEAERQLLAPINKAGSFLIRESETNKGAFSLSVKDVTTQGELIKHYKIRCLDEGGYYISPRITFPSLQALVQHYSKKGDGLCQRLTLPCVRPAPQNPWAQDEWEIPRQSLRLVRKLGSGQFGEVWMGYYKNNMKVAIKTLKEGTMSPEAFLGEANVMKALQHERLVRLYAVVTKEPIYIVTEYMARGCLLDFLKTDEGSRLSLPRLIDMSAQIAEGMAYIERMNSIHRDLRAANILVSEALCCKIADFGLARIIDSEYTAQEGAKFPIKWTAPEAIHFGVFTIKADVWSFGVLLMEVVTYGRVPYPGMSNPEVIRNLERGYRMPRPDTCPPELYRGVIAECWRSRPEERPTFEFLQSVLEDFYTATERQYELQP
Description: as §1

HER2 = HER2 (Homo sapiens, UniProt P04626); assay: Caliper-based kinase assay, off-target HER2; format: biochemical; details: Cys-481 homologous kinase panel
HER2, sequence (P04626 23-1255): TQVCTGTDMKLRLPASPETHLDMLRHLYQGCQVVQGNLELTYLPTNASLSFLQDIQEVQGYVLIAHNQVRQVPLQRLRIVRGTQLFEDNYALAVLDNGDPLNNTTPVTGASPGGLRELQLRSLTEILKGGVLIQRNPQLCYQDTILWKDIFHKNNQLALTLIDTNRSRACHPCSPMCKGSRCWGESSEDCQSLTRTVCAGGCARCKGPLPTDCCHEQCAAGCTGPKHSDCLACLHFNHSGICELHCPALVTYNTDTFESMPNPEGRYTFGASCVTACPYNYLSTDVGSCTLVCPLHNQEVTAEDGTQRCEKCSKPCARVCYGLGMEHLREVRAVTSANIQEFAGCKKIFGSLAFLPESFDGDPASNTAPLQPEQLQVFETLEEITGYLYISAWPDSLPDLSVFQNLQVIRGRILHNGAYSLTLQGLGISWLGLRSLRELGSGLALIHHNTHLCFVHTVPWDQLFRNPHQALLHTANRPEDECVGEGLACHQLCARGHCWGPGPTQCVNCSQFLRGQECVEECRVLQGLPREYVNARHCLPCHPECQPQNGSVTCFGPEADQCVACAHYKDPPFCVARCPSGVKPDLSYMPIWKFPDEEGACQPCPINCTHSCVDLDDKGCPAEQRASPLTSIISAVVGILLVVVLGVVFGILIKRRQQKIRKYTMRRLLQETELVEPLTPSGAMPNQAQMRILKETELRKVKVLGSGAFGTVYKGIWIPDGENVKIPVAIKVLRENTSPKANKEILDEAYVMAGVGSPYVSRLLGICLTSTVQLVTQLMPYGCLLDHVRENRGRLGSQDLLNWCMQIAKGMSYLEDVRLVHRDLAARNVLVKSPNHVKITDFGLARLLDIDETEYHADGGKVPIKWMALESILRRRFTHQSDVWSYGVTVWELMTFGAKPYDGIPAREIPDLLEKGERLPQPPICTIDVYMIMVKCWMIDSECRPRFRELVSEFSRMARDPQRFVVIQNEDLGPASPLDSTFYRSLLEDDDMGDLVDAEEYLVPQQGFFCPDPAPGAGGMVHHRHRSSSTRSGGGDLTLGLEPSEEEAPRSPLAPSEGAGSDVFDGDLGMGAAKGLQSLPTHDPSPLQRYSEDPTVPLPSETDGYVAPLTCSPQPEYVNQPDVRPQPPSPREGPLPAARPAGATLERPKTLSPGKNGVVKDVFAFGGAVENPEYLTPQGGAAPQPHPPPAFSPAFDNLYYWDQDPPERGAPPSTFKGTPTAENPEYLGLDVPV
Description: as §1

[1] = tested on: liver cancer cell line HepG2; assay: HepG2 in vitro liver toxicity assay (ATPlite); format: cell-based; details: Homo sapiens, HepG2, about 72 hours incubation
Description: (§2) Cell antiproliferation is assayed by PerkinElmer ATPlite™ Luminescence Assay System. Briefly, the liver cancer cell line HepG2 are plated at a density of about 1×10^4 cells per well in Costar 96-well plates, and are incubated with different concentrations of compounds for about 72 hours in medium supplemented with 5% FBS. One lyophilized substrate solution vial is then reconstituted by adding 5 mL of substrate buffer solution, and is agitated gently until the solution is homogeneous. About 50 μL of mammalian cell lysis solution is added to 100 μL of cell suspension per well of a microplate, and the plate is shaken for about five minutes in an orbital shaker at −700 rpm. This procedure is used to lyse the cells and to stabilize the ATP. Next, 50 μL substrate solution is added to the wells and microplate is shaken for five minutes in an orbital shaker at −700 rpm. Finally, the luminescence is measured by a PerkinElmer TopCount® Microplate Scintillation Counter. Such assays, carried out with a range of doses of test compounds, allow the determination of the cellular anti-antiproliferative IC50 of the compounds of the present invention.

human primary hepatocyte = assay: Human primary hepatocyte cytotoxicity (ATPlite); format: cell-based; details: about 72 hours incubation
Description: as §2, with “viability assay” for “antiproliferation”, “human primary hepatocyte” for “liver cancer cell line HepG2”

TXK = molecular target: T1, TXK (Homo sapiens, UniProt P42681); assay: Caliper-based kinase assay, off-target TXK; format: biochemical; details: Cys-481 homologous kinase panel
T1 sequence (P42681 1-527): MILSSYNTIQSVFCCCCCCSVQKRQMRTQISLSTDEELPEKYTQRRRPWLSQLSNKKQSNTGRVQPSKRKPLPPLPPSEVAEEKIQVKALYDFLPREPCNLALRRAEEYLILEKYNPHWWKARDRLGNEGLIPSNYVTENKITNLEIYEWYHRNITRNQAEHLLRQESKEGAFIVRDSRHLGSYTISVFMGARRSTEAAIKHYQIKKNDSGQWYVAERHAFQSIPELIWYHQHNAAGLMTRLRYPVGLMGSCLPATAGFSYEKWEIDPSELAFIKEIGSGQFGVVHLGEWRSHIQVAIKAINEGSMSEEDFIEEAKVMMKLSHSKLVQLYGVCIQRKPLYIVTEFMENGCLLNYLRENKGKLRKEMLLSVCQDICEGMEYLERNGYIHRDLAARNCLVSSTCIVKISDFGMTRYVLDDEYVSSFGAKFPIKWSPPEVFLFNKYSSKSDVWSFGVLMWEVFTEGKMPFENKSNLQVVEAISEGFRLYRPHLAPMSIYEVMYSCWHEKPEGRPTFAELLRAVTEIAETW
Description: as §1

TEC = molecular target: T2, TEC (Homo sapiens, UniProt P42680); assay: Caliper-based kinase assay, off-target TEC; format: biochemical; details: Cys-481 homologous kinase panel
T2 sequence (P42680 1-631): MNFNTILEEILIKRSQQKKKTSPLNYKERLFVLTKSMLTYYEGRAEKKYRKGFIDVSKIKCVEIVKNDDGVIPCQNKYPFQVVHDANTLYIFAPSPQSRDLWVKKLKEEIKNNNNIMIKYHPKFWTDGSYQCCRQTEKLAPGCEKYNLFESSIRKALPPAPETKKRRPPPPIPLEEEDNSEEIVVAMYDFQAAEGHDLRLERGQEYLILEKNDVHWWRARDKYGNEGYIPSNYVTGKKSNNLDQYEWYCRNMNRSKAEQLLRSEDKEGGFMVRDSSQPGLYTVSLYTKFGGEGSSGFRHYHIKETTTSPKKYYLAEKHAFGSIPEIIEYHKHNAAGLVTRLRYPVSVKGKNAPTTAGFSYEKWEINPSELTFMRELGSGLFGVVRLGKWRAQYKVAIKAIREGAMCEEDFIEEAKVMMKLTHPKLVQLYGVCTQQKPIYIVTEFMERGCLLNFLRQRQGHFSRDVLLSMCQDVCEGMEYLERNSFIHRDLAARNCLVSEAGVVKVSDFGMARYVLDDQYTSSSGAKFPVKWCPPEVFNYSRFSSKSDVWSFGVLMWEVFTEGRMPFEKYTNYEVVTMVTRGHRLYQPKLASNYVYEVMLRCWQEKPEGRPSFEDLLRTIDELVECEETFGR
Description: as §1

EGFR, sequence (P00533 25-1210): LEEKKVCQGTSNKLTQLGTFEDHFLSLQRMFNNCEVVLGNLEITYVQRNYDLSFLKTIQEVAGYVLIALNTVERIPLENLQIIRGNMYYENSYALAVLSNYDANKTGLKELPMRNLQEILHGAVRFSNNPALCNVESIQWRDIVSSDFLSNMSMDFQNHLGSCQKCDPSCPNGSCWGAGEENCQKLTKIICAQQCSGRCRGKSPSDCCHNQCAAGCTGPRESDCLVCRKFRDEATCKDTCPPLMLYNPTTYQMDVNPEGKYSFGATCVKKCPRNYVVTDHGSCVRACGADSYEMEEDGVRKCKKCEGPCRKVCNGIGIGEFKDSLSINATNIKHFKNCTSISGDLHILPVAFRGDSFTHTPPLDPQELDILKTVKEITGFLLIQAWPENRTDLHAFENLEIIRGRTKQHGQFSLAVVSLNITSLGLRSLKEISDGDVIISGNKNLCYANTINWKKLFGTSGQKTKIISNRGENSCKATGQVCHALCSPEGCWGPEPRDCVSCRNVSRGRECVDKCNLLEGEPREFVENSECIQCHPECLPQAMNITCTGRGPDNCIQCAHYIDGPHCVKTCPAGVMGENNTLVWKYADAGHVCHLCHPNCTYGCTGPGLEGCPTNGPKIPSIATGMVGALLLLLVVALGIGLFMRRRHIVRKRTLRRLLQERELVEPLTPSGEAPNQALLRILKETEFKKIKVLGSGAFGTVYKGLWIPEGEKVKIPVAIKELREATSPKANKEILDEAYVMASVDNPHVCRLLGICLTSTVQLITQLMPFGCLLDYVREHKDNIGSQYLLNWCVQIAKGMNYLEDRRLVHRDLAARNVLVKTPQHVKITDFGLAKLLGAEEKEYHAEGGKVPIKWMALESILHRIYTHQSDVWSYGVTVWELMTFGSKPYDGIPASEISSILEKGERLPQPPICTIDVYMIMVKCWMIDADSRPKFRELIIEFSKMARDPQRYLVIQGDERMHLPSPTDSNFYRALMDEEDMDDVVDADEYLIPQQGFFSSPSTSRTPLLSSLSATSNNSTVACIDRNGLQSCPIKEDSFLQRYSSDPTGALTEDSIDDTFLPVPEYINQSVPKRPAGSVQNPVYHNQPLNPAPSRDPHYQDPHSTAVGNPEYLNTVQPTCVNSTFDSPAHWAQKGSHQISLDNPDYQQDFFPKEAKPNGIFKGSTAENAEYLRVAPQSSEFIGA

IC50 (EGFR) [nM]	IC50 (HER4) [nM]	IC50 (BLK) [nM]	IC50 (HER2) [nM]	IC50 (TXK) [nM]	IC50 (TEC) [nM]	SMILES	IC50 ([1]; read-out: HepG2 IC50) [nM]	IC50 (human primary hepatocyte) [nM]	IC50 ([1]; another experiment, read-out: HepG2 IC50 (another experiment)) [nM]
> 1000	> 1000	> 1000	> 1000	> 1000	153	C=CC(=O)Nc1cc(Nc2nc(-c3ccnc(N4CCn5c(cc6c5CC(C)(C)C6)C4=O)c3CO)cn(C)c2=O)ccc1N1CCN(C2CCOCC2)C[C@H]1C(F)(F)F [Example 48-S, N-(5-[[6-(2-[4,4-dimethyl-9-oxo-1,10-diazatricyclo[6.4.0.0^[2,6]]dodeca-2(6),7-dien-10-yl]-3-(hydroxymethyl)pyridin-4-yl)-4-methyl-3-oxopyrazin-2-yl]amino]-2-[(2S)-4-(oxan-4-yl)-2-(trifluoromethyl)piperazin-1-yl]phenyl)prop-2-enamide]	64500	40900	–
> 1000	> 1000	> 1000	> 1000	> 1000	686	C=CC(=O)Nc1cc(Nc2nc(-c3ccnc(N4CCc5c(sc6c5CCCC6)C4=O)c3CO)cn(C)c2=O)ccc1N1CCN(C2CCOCC2)C[C@H]1C(F)(F)F [Example 55-S, N-[5-([6-[3-(hydroxymethyl)-2-[6-oxo-8-thia-5-azatricyclo[7.4.0.0^[2,7]]trideca-1(9), 2(7)-dien-5-yl]pyridin-4-yl]-4-methyl-3-oxopyrazin-2-yl]amino)-2-[(2S)-4-(oxan-4-yl)-2-(trifluoromethyl)piperazin-1-yl]phenyl]prop-2-enamide]	197000	> 100000	> 200000
268	3.1	3.1	> 1000	0.48	0.67	CC(C)(/C=C(\C#N)C(=O)N1CCC[C@@H](n2nc(-c3ccc(Oc4ccccc4)cc3F)c3c(N)ncnc32)C1)N1CCN(C2COC2)CC1 [PRN-1008, reference compound]	39600	23500	–
